Here are results for one compound from patent publication US7534915B2, “Non-symmetrical gelling agent” (Applied Nanosystems B.V., priority 2003, dated 2009).

In one data set the test system is α-chymotrypsin. Description: α-chymotrypsin-induced cleavage followed by fluorescence detection of released 6-AQ. In kind it is biochemical. From the text: In order to investigate the enzymatic cleavage of a gelator-drug conjugate, we selected the enzyme α-chymotrypsin, which is capable of cleaving amide bonds at the C═O terminus of L-phenylalanine-based substrates like compound 12 (CHex(AmPhe-6AQ)(AmEtOEtOH)2), resulting here in the release of the fluorogenic “model drug” 6-aminoquinoline (6-AQ). This system allows easy monitoring of the cleavage kinetics owing to the fact that the excitation and emission maxima for the amide and amino form of this compound are adequately separated (amide form: λex=315 nm, λem=370 nm, amine form: λex=339 nm, λem=550 nm).
Gelator 12 was dissolved in a small amount of DMSO (100 μL), whereas α-chymotrypsin was dissolved in a buffer solution (Tris-HCl, 0.1 M, pH 7.75, 900 μL). […] In order to determine the effect of gelation on the enzymatic cleavage, the water-soluble, non-gelating, model substrate 39 was synthesized with a structure similar to that of gelator 12.
Fluorescence experiments were carried out in which the α-chymotrypsin-induced cleavage of compounds 12 and 39 was followed through the detection of 6-AQ.
Legend to FIG. 2 (from bottom to top): Trace a: gel of gelator 12 (0.5 wt %=7.54 mM); trace b: gel of gelator 12 (0.5 wt %=7.54 mM)+α-chymotrypsin ([…]); trace c: gel of gelator 12 (0.5 wt %=7.54 mM)+compound 39 (7.54 mM)+α-chymotrypsin (40 μM); trace d: solution of compound 39 (7.54 mM)+α-chymotrypsin (40 mM)
Performing the cleavage experiments for both 12 and 39 at different substrate concentrations and plotting the initial rates as a function of the substrate concentration (i.e., 12 or 39) results in the points plotted in FIG. 3. […] The initial rates for gelator 12, however, increase up to a certain point, after which they remain the same, even at much higher concentrations. From the corresponding Lineweaver-Burke and Eadie-Hofstee plots, values for Vmax and Km could be obtained for both compounds. […] From these points, the following values were calculated. […] Using these values for Vmax and Km, the theoretical curves could be plotted for both compounds. For compound 39, the experimentally determined points fitted very well on the curve. […] Below this concentration, a sample of 12 exists as a solution. So, even though the molecules in a gel are in constant equilibrium with those in solution and the overall gelator concentration may increase well above the CGC (thus bringing about gelation), the concentration of gelator in solution can never exceed the CGC. The fact that the initial rate for 12 no longer increases once the substrate (i.e., gelator) concentration exceeds the CGC, proves that only the gelator molecules in solution can be cleaved by the enzyme.

Data set [1] in a line: Gel test (vial inversion). The data set is classed as physicochemical. How it is done:
A weighed amount of solid was dissolved in 0.5 or 1 ml of the solvent in a closed 2.0 ml vial using a heating gun or a heating block and subsequently slowly cooled to room temperature by standing in the air. Gelation was determined by turning the vial upside down and gentle shaking. If no flow of the mass was observed, the mass was defined to be a gel. Alternatively, a weighed amount of solid was dissolved in 1 mL of solvent by the addition of acid or base. The subsequent addition of base or acid then gave gelation. Alternatively, a weighed amount of solid was dissolved in a small amount of solvent. The subsequent addition of a large amount of non-solvent then gave gelation. Alternatively, the solution of gelator/thickener was added to the non-solvent, resulting in gelation. Alternatively, a weighed amount of solid was mixed with 1 mL of solvent by sonication. After stopping the sonication, gelation occurred. Alternatively a weighed amount of solid was mixed with 1 mL of solvent by brief vortexing after which gelation occurred. Alternatively a weighed amount of solid was mixed with 1 mL of solvent after which gelation occurred.

Data set [2] can be described thus: Cryo-TEM and small angle x-ray diffraction of hydrogel fibers. In kind it is physicochemical. How it is done:
Cryo-transmission Electron Microscopy Measurements
A gel was prepared following one of the procedures described above. A small amount of the gel was carefully deposited on a bare copper grid, using a spatula. The excess solution was blotted with a filter paper, leaving a thin sample film. The grid was subsequently plunged into liquid ethane for vitrification. The vitrified specimens were transferred to a Gatan model 626 cryostage and observed in a Philips CM 120 electron microscope operating at 120 kV. The images were recorded under low-dose conditions at about −170° C. The samples were all prepared in duplo.
Presumably, the lack of (C3-)symmetry prevents the aggregation of the fibers into large bundles from taking place, and leads to the highly uniform and very low fiber diameter, the latter in turn leading to clear gel.
The left-side image is a low magnification, the right-side image a high magnification (white bar at the upper left-hand quarter in the right-side image corresponds to 4.5 nm). […] The high uniformity of the fiber thicknesses can be clearly observed in the close-up image on the right.

The mark [3] stands for this setting: from Lineweaver-Burke and Eadie-Hofstee plots, for 12 only points where V still increased.

Take `O=C(NCCOCCO)[C@@H]1C[C@H](C(=O)NCCOCCO)C[C@H](C(=O)N[C@@H](Cc2ccccc2)C(=O)Nc2ccc3ncccc3c2)C1` [Compound 12, CHex(AmPhe-6AQ)(AmEtOEtOH)2]: the Km in the data set on α-chymotrypsin (setting [3]) was found to be 1.8 mM. For the same compound, in the data set with α-chymotrypsin (setting [3]), the Vmax was 4.1 µmol/min. Also, in the data set on α-chymotrypsin (gel 0.5 wt % = 7.54 mM, fluorescence at 550 nm), the “Cleavage (6-AQ formation) in the absence of α-chymotrypsin” value is recorded as “no cleavage”. Besides, in the data set on α-chymotrypsin (plateau of initial rate above the CGC), the “experimentally determined Vmax” value was determined as 1.8 µmol/min. Also, the “Cleavage (6-AQ formation) by α-chymotrypsin” value in the data set with α-chymotrypsin (substrate 7.54 mM (12 as gel, 39 as solution), α-chymotrypsin 40 mM as printed) is “minor cleavage”. Moreover, the Gel test entry is “clear gel” in data set [1] (0.3 mg/mL in H2O or PBS), “clear gel” in data set [1] (0.5 mg/mL in H2O/DMSO (19:1)), “clear gel” in data set [1] (0.6 mg/mL in H2O/EtOH (19:1)) and “turbid gel” in data set [1] (25 mg/ml in EtOH). Also, the Gel formation entry is “does not gelate” in data set [1] (4 mg with pyrene in DMSO 100 μL + 1N HCl 900 μL) and “clear, homogeneous gel” in data set [1] (DMSO 100 μL + α-chymotrypsin in Tris-HCl 0.1 M pH 7.75 900 μL, rapid addition). In data set [1] (H2O:DMSO=9:1), the “Critical gelator concentration (CGC)” value came out at 1.5 mM. For the same compound, the Gel fiber thickness result in data set [2] is “about 4.5 nm”.

In general, Km refers to the substrate concentration at which the rate is half of its maximum. For orientation: Vmax means the rate approached at saturating substrate.
